# Source: US8022099B2, “N-benzyl pyrrolidine derivatives” (Hoffmann-La Roche Inc., priority 2008, dated 2011)
# Target: T1, human NK3 receptor (Homo sapiens, UniProt P29371)
# T1 construct: expressed in transfected cells; host or cells: HEK293 cells (transient expression), membrane preparation
# T1 sequence (P29371 1-465): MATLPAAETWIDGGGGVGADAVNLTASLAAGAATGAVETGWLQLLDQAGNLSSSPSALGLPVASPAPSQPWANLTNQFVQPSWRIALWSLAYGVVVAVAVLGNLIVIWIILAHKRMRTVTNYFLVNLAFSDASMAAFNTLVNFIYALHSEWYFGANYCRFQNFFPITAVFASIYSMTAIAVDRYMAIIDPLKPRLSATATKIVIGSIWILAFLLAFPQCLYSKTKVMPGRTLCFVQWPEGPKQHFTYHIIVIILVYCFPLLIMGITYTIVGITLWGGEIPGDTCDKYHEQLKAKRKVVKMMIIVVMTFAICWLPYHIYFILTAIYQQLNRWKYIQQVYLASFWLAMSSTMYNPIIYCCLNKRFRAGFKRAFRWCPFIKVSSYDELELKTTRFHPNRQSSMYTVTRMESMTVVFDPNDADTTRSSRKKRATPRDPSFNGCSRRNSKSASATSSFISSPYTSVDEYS
# Assay: [3H]SR142801 competition binding assay
# Settings: hNK3 receptor binding, [3H]SR142801, membranes from HEK293 cells transiently expressing recombinant human NK3 receptor
# Method in brief: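 Membranes from HEK293 cells transiently expressing human NK3 were incubated 75 min at RT with [3H]SR142801 at its KD and inhibitor (0.0003-10 μM) in Tris-HCl pH 7.4/MnCl2/phosphoramidon/BSA. Nonspecific binding used 10 μM SB222200. Ki from Hill-fitted IC50 via Cheng-Prusoff, duplicate determinations.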
row,Ki [nM],SMILES
1,81.2,"CN(Cc1ccc(C(F)(F)F)c(F)c1)[C@H]1CN(C(=O)CCCCN2CCOCC2)C[C@@H]1c1cccc(Cl)c1 (racemic) [Example 107, 1-{(3SR,4RS)-3-(3-Chloro-phenyl)-4-[(3-fluoro-4-trifluoromethyl-benzyl)-methyl-amino]-pyrrolidin-1-yl}-5-morpholin-4-yl-pentan-1-one]"
2,45.7,"CN(Cc1ccc(C(F)(F)F)c(F)c1)[C@H]1CN(C(=O)CN2CCOCC2)C[C@@H]1c1ccc(Cl)c(Cl)c1 (racemic) [Example 113, 1-{(3SR,4RS)-3-(3,4-Dichloro-phenyl)-4-[(3-fluoro-4-trifluoromethyl-benzyl)-methyl-amino]-pyrrolidin-1-yl}-2-morpholin-4-yl-ethanone]"
3,40.2,"CN1CCN(CC(=O)N2C[C@H](c3ccc(Cl)c(Cl)c3)[C@@H](N(C)Cc3ccc(C(F)(F)F)c(F)c3)C2)CC1 (racemic) [Example 114, 1-{(3SR,4RS)-3-(3,4-Dichloro-phenyl)-4-[(3-fluoro-4-trifluoromethyl-benzyl)-methyl-amino]-pyrrolidin-1-yl}-2-(4-methyl-piperazin-1-yl)-ethanone]"
4,13,"CN(Cc1ccc(C(F)(F)F)c(F)c1)[C@H]1CN(C(=O)CN2CCN(S(C)(=O)=O)CC2)C[C@@H]1c1ccc(Cl)c(Cl)c1 (racemic) [Example 115, 1-{(3SR,4RS)-3-(3,4-Dichloro-phenyl)-4-[(3-fluoro-4-trifluoromethyl-benzyl)-methyl-amino]-pyrrolidin-1-yl}-2-(4-methanesulfonyl-piperazin-1-yl)-ethanone]"
5,16.9,"CN(Cc1ccc(C(F)(F)F)c(F)c1)[C@H]1CN(C(=O)CN2CCN(S(=O)(=O)N(C)C)CC2)C[C@@H]1c1ccc(Cl)c(Cl)c1 (racemic) [Example 116, 4-(2-{(3SR,4RS)-3-(3,4-Dichloro-phenyl)-4-[(3-fluoro-4-trifluoromethyl-benzyl)-methyl-amino]-pyrrolidin-1-yl}-2-oxo-ethyl)-piperazine-1-sulfonic acid dimethylamide]"
6,19.3,"CN(C)CCN1CCN(CC(=O)N2C[C@H](c3ccc(Cl)c(Cl)c3)[C@@H](N(C)Cc3ccc(C(F)(F)F)c(F)c3)C2)CC1 (racemic) [Example 117, 1-{(3SR,4RS)-3-(3,4-Dichloro-phenyl)-4-[(3-fluoro-4-trifluoromethyl-benzyl)-methyl-amino]-pyrrolidin-1-yl}-2-[4-(2-dimethylamino-ethyl)-piperazin-1-yl]-ethanone]"
7,11.2,"CN(Cc1ccc(C(F)(F)F)c(F)c1)[C@H]1CN(C(=O)CN2CCN(CCC#N)CC2)C[C@@H]1c1ccc(Cl)c(Cl)c1 (racemic) [Example 118, 3-[4-(2-{(3SR,4RS)-3-(3,4-Dichloro-phenyl)-4-[(3-fluoro-4-trifluoromethyl-benzyl)-methyl-amino]-pyrrolidin-1-yl}-2-oxo-ethyl)-piperazin-1-yl]-propionitrile]"
8,96.4,"CN(C)CCNCC(=O)N1C[C@H](c2ccc(Cl)c(Cl)c2)[C@@H](N(C)Cc2ccc(C(F)(F)F)c(F)c2)C1 (racemic) [Example 124, 1-{(3SR,4RS)-3-(3,4-Dichloro-phenyl)-4-[(3-fluoro-4-trifluoromethyl-benzyl)-methyl-amino]-pyrrolidin-1-yl}-2-(2-dimethylamino-ethylamino)-ethanone]"
9,76.8,"CN(C)CCCNCC(=O)N1C[C@H](c2ccc(Cl)c(Cl)c2)[C@@H](N(C)Cc2ccc(C(F)(F)F)c(F)c2)C1 (racemic) [Example 125, 1-{(3SR,4RS)-3-(3,4-Dichloro-phenyl)-4-[(3-fluoro-4-trifluoromethyl-benzyl)-methyl-amino]-pyrrolidin-1-yl}-2-(3-dimethylamino-propylamino)-ethanone]"
10,80.5,"CN(C)CCCN(C)CC(=O)N1C[C@H](c2ccc(Cl)c(Cl)c2)[C@@H](N(C)Cc2ccc(C(F)(F)F)c(F)c2)C1 (racemic) [Example 126, 1-{(3SR,4RS)-3-(3,4-Dichloro-phenyl)-4-[(3-fluoro-4-trifluoromethyl-benzyl)-methyl-amino]-pyrrolidin-1-yl}-2-[(3-dimethylamino-propyl)-methyl-amino]-ethanone]"
11,99.7,"CN(Cc1ccc(C(F)(F)F)c(F)c1)[C@H]1CN(C(=O)CNCCC#N)C[C@@H]1c1ccc(Cl)c(Cl)c1 (racemic) [Example 127, 3-(2-{(3SR,4RS)-3-(3,4-Dichloro-phenyl)-4-[(3-fluoro-4-trifluoromethyl-benzyl)-methyl-amino]-pyrrolidin-1-yl}-2-oxo-ethylamino)-propionitrile]"
12,72,"CN(CCC#N)CC(=O)N1C[C@H](c2ccc(Cl)c(Cl)c2)[C@@H](N(C)Cc2ccc(C(F)(F)F)c(F)c2)C1 (racemic) [Example 128, 3-[(2-{(3SR,4RS)-3-(3,4-Dichloro-phenyl)-4-[(3-fluoro-4-trifluoromethyl-benzyl)-methyl-amino]-pyrrolidin-1-yl}-2-oxo-ethyl)-methyl-amino]-propionitrile]"
13,17.1,"CN(Cc1ccc(C(F)(F)F)c(F)c1)[C@H]1CN(C(=O)CN2CCN(CCCO)CC2)C[C@@H]1c1ccc(Cl)c(Cl)c1 (racemic) [Example 129, 1-{(3SR,4RS)-3-(3,4-Dichloro-phenyl)-4-[(3-fluoro-4-trifluoromethyl-benzyl)-methyl-amino]-pyrrolidin-1-yl}-2-[4-(3-hydroxy-propyl)-piperazin-1-yl]-ethanone]"
14,25.4,"CN(Cc1ccc(C(F)(F)F)c(F)c1)[C@H]1CN(C(=O)CN2CCC(C#N)CC2)C[C@@H]1c1ccc(Cl)c(Cl)c1 (racemic) [Example 130, 1-(2-{(3SR,4RS)-3-(3,4-Dichloro-phenyl)-4-[(3-fluoro-4-trifluoromethyl-benzyl)-methyl-amino]-pyrrolidin-1-yl}-2-oxo-ethyl)-piperidine-4-carbonitrile]"
15,33.4,"CN(Cc1ccc(C(F)(F)F)c(F)c1)[C@H]1CN(C(=O)CN2CCNCC2)C[C@@H]1c1ccc(Cl)c(Cl)c1 (racemic) [Example 131, 1-{(3SR,4RS)-3-(3,4-Dichloro-phenyl)-4-[(3-fluoro-4-trifluoromethyl-benzyl)-methyl-amino]-pyrrolidin-1-yl}-2-piperazin-1-yl-ethanone]"
16,26.3,"CN(Cc1ccc(C(F)(F)F)c(F)c1)[C@H]1CN(C(=O)CN2CCC(O)CC2)C[C@@H]1c1ccc(Cl)c(Cl)c1 (racemic) [Example 132, 1-{(3SR,4RS)-3-(3,4-Dichloro-phenyl)-4-[(3-fluoro-4-trifluoromethyl-benzyl)-methyl-amino]-pyrrolidin-1-yl}-2-(4-hydroxy-piperidin-1-yl)-ethanone]"
17,18.9,"CN(C)C1CCN(CC(=O)N2C[C@H](c3ccc(Cl)c(Cl)c3)[C@@H](N(C)Cc3ccc(C(F)(F)F)c(F)c3)C2)CC1 (racemic) [Example 136, 1-{(3SR,4RS)-3-(3,4-Dichloro-phenyl)-4-[(3-fluoro-4-trifluoromethyl-benzyl)-methyl-amino]-pyrrolidin-1-yl}-2-(4-dimethylamino-piperidin-1-yl)-ethanone]"
18,8.7,"CC(=O)NC1CCN(CC(=O)N2C[C@H](c3ccc(Cl)c(Cl)c3)[C@@H](N(C)Cc3ccc(C(F)(F)F)c(F)c3)C2)CC1 (racemic) [Example 137, N-[1-(2-{(3SR,4RS)-3-(3,4-Dichloro-phenyl)-4-[(3-fluoro-4-trifluoromethyl-benzyl)-methyl-amino]-pyrrolidin-1-yl}-2-oxo-ethyl)-piperidin-4-yl]-acetamide]"
19,8.8,"CC(=O)N1CCN(CC(=O)N2C[C@H](c3ccc(Cl)c(Cl)c3)[C@@H](N(C)Cc3ccc(C(F)(F)F)c(F)c3)C2)CC1 (racemic) [Example 138, 2-(4-Acetyl-piperazin-1-yl)-1-{(3SR,4RS)-3-(3,4-dichloro-phenyl)-4-[(3-fluoro-4-trifluoromethyl-benzyl)-methyl-amino]-pyrrolidin-1-yl}-ethanone]"
20,24.9,"CC1CN(CC(=O)N2C[C@H](c3ccc(Cl)c(Cl)c3)[C@@H](N(C)Cc3ccc(C(F)(F)F)c(F)c3)C2)CC(C)N1 (mixture of isomers) [Example 139, 1-{(3SR,4RS)-3-(3,4-Dichloro-phenyl)-4-[(3-fluoro-4-trifluoromethyl-benzyl)-methyl-amino]-pyrrolidin-1-yl}-2-(3,5-dimethyl-piperazin-1-yl)-ethanone]"
21,19.7,"CC1CN(CC(=O)N2C[C@H](c3ccc(Cl)c(Cl)c3)[C@@H](N(C)Cc3ccc(C(F)(F)F)c(F)c3)C2)CC(C)O1 (mixture of isomers) [Example 142, 1-{(3SR,4RS)-3-(3,4-Dichloro-phenyl)-4-[(3-fluoro-4-trifluoromethyl-benzyl)-methyl-amino]-pyrrolidin-1-yl}-2-(2,6-dimethyl-morpholin-4-yl)-ethanone]"
22,12,"CN(Cc1ccc(C(F)(F)F)c(F)c1)[C@H]1CN(C(=O)CN2CCC(NS(C)(=O)=O)CC2)C[C@@H]1c1ccc(Cl)c(Cl)c1 (racemic) [Example 143, N-[1-(2-{(3SR,4RS)-3-(3,4-Dichloro-phenyl)-4-[(3-fluoro-4-trifluoromethyl-benzyl)-methyl-amino]-pyrrolidin-1-yl}-2-oxo-ethyl)-piperidin-4-yl]-methanesulfonamide]"
